# Test results reported in ChEMBL document CHEMBL5365473, “Novel Sulfonylurea-Based NLRP3 Inflammasome Inhibitor for Efficient Treatment of Nonalcoholic Steatohepatitis, Endotoxic Shock, and Colitis” (J Med Chem, 2023).
# pIC50: −log10 of the molar value.
# Biological target: NACHT, LRR and PYD domains-containing protein 3 (Mus musculus, UniProt Q8R4B8)
# Test: Inhibition of NLRP3 inflammasome in mouse […] cells assessed as inhibition of LPS/ATP-induced IL-1 beta secretion primed with LPS for 4.5 hs followed by incubation with compound for 30 mins and later stimulation with ATP for 30 mins by ELISA
# Type: cell-based, J774.A1
# NACHT, LRR and PYD domains-containing protein 3, sequence (Q8R4B8 whole entry, the tested form may be a part): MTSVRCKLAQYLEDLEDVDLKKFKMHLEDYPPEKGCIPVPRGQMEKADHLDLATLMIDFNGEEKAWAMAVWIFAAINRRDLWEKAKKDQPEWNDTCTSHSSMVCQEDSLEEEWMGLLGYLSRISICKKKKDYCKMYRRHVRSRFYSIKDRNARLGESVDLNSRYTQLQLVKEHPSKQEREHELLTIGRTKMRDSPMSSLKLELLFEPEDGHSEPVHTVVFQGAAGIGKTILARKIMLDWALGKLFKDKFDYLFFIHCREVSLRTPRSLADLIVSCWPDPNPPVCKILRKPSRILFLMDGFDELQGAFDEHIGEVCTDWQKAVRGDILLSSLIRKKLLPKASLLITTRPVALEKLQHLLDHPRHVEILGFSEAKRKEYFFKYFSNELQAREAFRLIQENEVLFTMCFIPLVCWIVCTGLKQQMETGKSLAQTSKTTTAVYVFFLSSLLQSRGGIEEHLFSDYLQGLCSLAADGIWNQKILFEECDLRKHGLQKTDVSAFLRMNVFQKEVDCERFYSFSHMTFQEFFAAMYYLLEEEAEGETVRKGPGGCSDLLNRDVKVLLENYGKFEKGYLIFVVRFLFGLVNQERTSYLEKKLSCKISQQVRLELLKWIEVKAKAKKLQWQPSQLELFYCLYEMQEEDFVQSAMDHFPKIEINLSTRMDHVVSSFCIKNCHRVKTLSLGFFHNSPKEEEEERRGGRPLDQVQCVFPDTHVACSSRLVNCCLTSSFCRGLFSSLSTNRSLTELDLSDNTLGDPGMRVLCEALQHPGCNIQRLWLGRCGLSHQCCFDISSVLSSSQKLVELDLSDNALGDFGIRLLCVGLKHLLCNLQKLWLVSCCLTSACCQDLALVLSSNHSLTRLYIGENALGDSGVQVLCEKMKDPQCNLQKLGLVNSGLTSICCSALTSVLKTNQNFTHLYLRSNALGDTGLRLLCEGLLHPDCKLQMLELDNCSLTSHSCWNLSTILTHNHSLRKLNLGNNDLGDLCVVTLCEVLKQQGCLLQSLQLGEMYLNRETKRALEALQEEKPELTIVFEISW
row,Structure (SMILES),pIC50
1,CN(C)c1ccc(S(=O)(=O)NC(=O)Nc2c3c(cc4c2CCC4)CCC3)cc1,< 5.00
2,CC(C)(O)c1cccc(S(=O)(=O)NC(=O)Nc2c3c(cc4c2CCC4)CCC3)c1,< 4.70
3,CNC(=O)c1cccc(S(=O)(=O)NC(=O)Nc2c3c(cc4c2CCC4)CCC3)c1,5.43
4,O=C(Nc1c2c(cc3c1CCC3)CCC2)NS(=O)(=O)c1ccc(CN2CCOCC2)cc1,5.43
5,CCCN(C)Cc1ccc(S(=O)(=O)NC(=O)Nc2c3c(cc4c2CCC4)CCC3)cc1,< 5.00
6,CN(C)C(=O)c1cccc(S(=O)(=O)NC(=O)Nc2c3c(cc4c2CCC4)CCC3)c1,6.16
7,CCCCCN(C)Cc1ccc(S(=O)(=O)NC(=O)Nc2c3c(cc4c2CCC4)CCC3)cc1,5.76
8,CC(C)c1cccc(C(C)C)c1CC(=O)NS(=O)(=O)c1ccc(CN(C)C)cc1,5.73
9,COC1CN(Cc2cccc(S(=O)(=O)NC(=O)Nc3c4c(cc5c3CCC5)CCC4)c2)C1,5.30
10,CN(C)Cc1cccc(S(=O)(=O)NC(=O)Nc2c3c(cc4c2CCC4)CCC3)c1,6.77

# More lines, now with the values ahead:
row,pIC50,Structure (SMILES)
1,< 5.00,Cc1cccc(C)c1NC(=O)NS(=O)(=O)c1ccc(CN(C)C)cc1
2,< 5.30,CC(C)(C)OC(=O)N1C=C(c2c3c(c(NC(=O)NS(=O)(=O)c4cc(C(C)(C)O)co4)c4c2CCC4)CCC3)CCC1
3,6.14,CN(C)Cc1cc(F)cc(S(=O)(=O)NC(=O)Nc2c3c(cc4c2CCC4)CCC3)c1
4,6.86,CC(C)c1cccc(C(C)C)c1NC(=O)NS(=O)(=O)c1ccc(CN(C)C)cc1
5,< 5.00,Cc1cc(C)cc(NC(=O)NS(=O)(=O)c2ccc(CN(C)C)cc2)c1
